# Data as given in patent US20020137929A1, “1 - (3-heterocyclylphenyl) isothiourea, -isourea, -guanidine and -amidine herbicidal agents” (Intellectual Property Department, BASF Aktiengesellschaft, priority 1998, published 2002).
# What was measured:
# [1] = test system: GALAP (Galium); assay: Preemergence herbicidal evaluation; assay type: in vivo, Galium aparine; conditions: rated 4-5 weeks after treatment
# Procedure, shortened: (§1)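 Herbicidal effect scored visually, 0-9, at 4 to 5 weeks against a control; compound applied preemergence by aqueous acetone spray to seeded soil at about 0.0156 to 0.500 kg/ha.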
# [2] = test system: IPOHE (Morningglory, Ivyleaf); assay: Postemergence herbicidal evaluation; assay type: in vivo, Ipomoea hederacea; conditions: postemergence
# Procedure, shortened: (§2)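 First, seedlings were raised for around two weeks. Next, test material in 50/50 acetone/water containing 0.5% TWEEN 20 was sprayed through a nozzle at 40 psi, equivalent to about 0.0156–0.500 kg/ha. Finally, after 4–5 weeks in the greenhouse, plants were rated 0–9.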
# [3] = test system: ABUTH (Velvetleaf); assay: Postemergence herbicidal evaluation; assay type: in vivo, Abutilon theophrasti; conditions: postemergence
# Procedure, shortened: as §2
# [4] = test system: CHEAL (Lambsquarters, Common); assay: Preemergence herbicidal evaluation; assay type: in vivo, Chenopodium album; conditions: rated 4-5 weeks after treatment
# Procedure, shortened: as §1
# [5] = test system: IPOHE (Morningglory, Ivyleaf); assay: Preemergence herbicidal evaluation; assay type: in vivo, Ipomoea hederacea; conditions: rated 4-5 weeks after treatment
# Procedure, shortened: as §1
# [6] = test system: ECHCG (Barnyardgrass); assay: Postemergence herbicidal evaluation; assay type: in vivo, Echinochloa crus-galli; conditions: postemergence
# Procedure, shortened: as §2
# [7] = test system: CASOB (Sicklepod); assay: Preemergence herbicidal evaluation; assay type: in vivo, Cassia obtusifolia; conditions: rated 4-5 weeks after treatment
# Procedure, shortened: as §1
# [8] = test system: ZEAMX (Corn, Field); assay: Preemergence herbicidal evaluation; assay type: in vivo, Zea mays; conditions: rated 4-5 weeks after treatment
# Procedure, shortened: as §1
# [9] = test system: ECHCG (Barnyardgrass); assay: Preemergence herbicidal evaluation; assay type: in vivo, Echinochloa crus-galli; conditions: rated 4-5 weeks after treatment
# Procedure, shortened: as §1
# [10] = test system: SETVI (Foxtail, Green); assay: Postemergence herbicidal evaluation; assay type: in vivo, Setaria viridis; conditions: postemergence
# Procedure, shortened: as §2
# [11] = test system: GLXMAW (Soybean, Williams); assay: Postemergence herbicidal evaluation; assay type: in vivo, Glycine max, (L.) Merr. cv Williams; conditions: postemergence
# Procedure, shortened: as §2
# [12] = test system: TRZAWR (Wheat, Winter, cv Riband); assay: Postemergence herbicidal evaluation; assay type: in vivo, Triticum aestivum; conditions: postemergence
# Procedure, shortened: as §2
# [13] = test system: AMBEL (Ragweed, Common); assay: Postemergence herbicidal evaluation; assay type: in vivo, Ambrosia artemisifolia; conditions: postemergence
# Procedure, shortened: as §2
compound,measurement,setting,value
"Cn1c(C(F)(F)F)cc(=O)n(-c2cc(N=C3SCC(=O)N3CC(F)(F)F)c(Cl)cc2F)c1=O [Compound 163, 3-{4-Chloro-2-fluoro-5-{[4-oxo-3-(2,2,2-trifluoroethyl)-2-thiazolidinylidene]amino}phenyl}-1-methyl-6-(trifluoromethyl)-2,4(1H,3H)-pyrimidinedione]",Preemergence herbicidal rating GALAP,[1]; 0.0156 kg/ha,0.0
same,Preemergence herbicidal rating GALAP,[1]; 0.0313 kg/ha,0.0
same,Preemergence herbicidal rating GALAP,[1]; 0.0625 kg/ha,0.0
same,Preemergence herbicidal rating GALAP,[1]; 0.1250 kg/ha,0.0
same,Preemergence herbicidal rating GALAP,[1]; 0.2500 kg/ha,3.0
same,herbicidal rating IPOHE,[2]; rate 0.0156 kg/ha,9.0
same,herbicidal rating IPOHE,[2]; rate 0.0313 kg/ha,9.0
same,herbicidal rating IPOHE,[2]; rate 0.0625 kg/ha,9.0
same,herbicidal rating ABUTH,[3]; rate 0.0156 kg/ha,9.0
same,herbicidal rating ABUTH,[3]; rate 0.0313 kg/ha,9.0
same,herbicidal rating ABUTH,[3]; rate 0.0625 kg/ha,9.0
same,Preemergence herbicidal rating CHEAL,[4]; 0.0156 kg/ha,9.0
same,Preemergence herbicidal rating CHEAL,[4]; 0.0313 kg/ha,9.0
same,Preemergence herbicidal rating CHEAL,[4]; 0.0625 kg/ha,9.0
same,Preemergence herbicidal rating CHEAL,[4]; 0.1250 kg/ha,9.0
same,Preemergence herbicidal rating CHEAL,[4]; 0.2500 kg/ha,9.0
same,Preemergence herbicidal rating IPOHE,[5]; 0.0156 kg/ha,0.0
same,Preemergence herbicidal rating IPOHE,[5]; 0.0313 kg/ha,0.0
same,Preemergence herbicidal rating IPOHE,[5]; 0.0625 kg/ha,3.0
same,Preemergence herbicidal rating IPOHE,[5]; 0.1250 kg/ha,9.0
same,Preemergence herbicidal rating IPOHE,[5]; 0.2500 kg/ha,9.0
same,herbicidal rating ECHCG,[6]; rate 0.0156 kg/ha,0.0
same,herbicidal rating ECHCG,[6]; rate 0.0313 kg/ha,0.0
same,herbicidal rating ECHCG,[6]; rate 0.0625 kg/ha,1.0
same,Preemergence herbicidal rating CASOB,[7]; 0.0156 kg/ha,0.0
same,Preemergence herbicidal rating CASOB,[7]; 0.0313 kg/ha,0.0
same,Preemergence herbicidal rating CASOB,[7]; 0.0625 kg/ha,0.0
same,Preemergence herbicidal rating CASOB,[7]; 0.1250 kg/ha,0.0
same,Preemergence herbicidal rating CASOB,[7]; 0.2500 kg/ha,5.0
same,Preemergence herbicidal rating ZEAMX,[8]; 0.0156 kg/ha,5.0
same,Preemergence herbicidal rating ZEAMX,[8]; 0.0313 kg/ha,5.0
same,Preemergence herbicidal rating ZEAMX,[8]; 0.0625 kg/ha,7.0
same,Preemergence herbicidal rating ZEAMX,[8]; 0.1250 kg/ha,7.0
same,Preemergence herbicidal rating ZEAMX,[8]; 0.2500 kg/ha,8.0
same,Preemergence herbicidal rating ECHCG,[9]; 0.0156 kg/ha,2.0
same,Preemergence herbicidal rating ECHCG,[9]; 0.0313 kg/ha,4.0
same,Preemergence herbicidal rating ECHCG,[9]; 0.0625 kg/ha,7.0
same,Preemergence herbicidal rating ECHCG,[9]; 0.1250 kg/ha,8.0
same,Preemergence herbicidal rating ECHCG,[9]; 0.2500 kg/ha,9.0
same,herbicidal rating SETVI,[10]; rate 0.0156 kg/ha,0.0
same,herbicidal rating SETVI,[10]; rate 0.0625 kg/ha,3.0
same,herbicidal rating GLXMAW,[11]; rate 0.0156 kg/ha,6.0
same,herbicidal rating GLXMAW,[11]; rate 0.0313 kg/ha,7.0
same,herbicidal rating GLXMAW,[11]; rate 0.0625 kg/ha,8.0
same,herbicidal rating TRZAWR,[12]; rate 0.0156 kg/ha,3.5
same,herbicidal rating TRZAWR,[12]; rate 0.0313 kg/ha,4.0
same,herbicidal rating TRZAWR,[12]; rate 0.0625 kg/ha,4.5
same,herbicidal rating AMBEL,[13]; rate 0.0156 kg/ha,9.0
same,herbicidal rating AMBEL,[13]; rate 0.0313 kg/ha,9.0
same,herbicidal rating AMBEL,[13]; rate 0.0625 kg/ha,9.0
